{"source": "patent US20240218333A1", "about": "“GENERATING QUIESCENT HEPATIC STELLATE CELLS AND THEIR USE IN LIVER MODELS” (The Cleveland Clinic Foundation, priority 2022, published 2024)", "type_in_all_cases": "cell-based, human", "key": {"[1]": {"tested_on": "hPSC-derived and primary HSCs", "assay": "Cell migration (scratch) assay", "settings": "48 hrs"}, "PNPLA3^WT liver cultures": {"tested_on": "PNPLA3^WT liver cultures", "assay": "IL6 supplementation of liver cultures", "procedure": "FIG. 15. Elevated IL6/STAT3 activity mediates the enhanced susceptibility to NAFLD phenotypes in PNPLA3^I148M liver cultures (A). Analysis of IL6 by ELISA in the supernatant of shRNA control (Ctrl) or sh-IL6 liver cultures maintained in lipotoxic condition for two weeks. Shown are mean±SD from 3 independent experiments. (B). From the experiment in (A), the transcript levels of CHI3L1 and CXCL10 in purified macrophages were analyzed by RT-qPCR. Shown are mean±SD from 3 independent experiments. (C-D). From the experiment in (A), HSCs were purified and subject to western blot analysis of STAT3 and phosphorylated STAT3 (T705) (C), and to RT-qPCR analysis of the transcript levels of inflammatory cytokine CCL5 and quiescent marker PPARG (D). For western blot, RPS11 was used as a loading control. For RT-qPCR, shown are mean±SD from 3 independent experiments. (E-H). The isogenic pair of liver cultures were maintained in lipotoxic condition for two weeks in the presence of either isotype control antibody (Ctrl) or IL6 neutralizing antibody (nIL6 Ab, 100 ng/ml). Individual cells were purified from these liver cultures and subject to RT-qPCR analysis of lipogenic-associated enzyme genes ACC1 and FASN in hepatocytes (E) and inflammatory cytokine CHI3L1 in macrophages (F), western blot analysis of HSC activation markers FN, COL1A1, and ACTA2 (G), and phosphorylated STAT3 (H) in HSCs. For western blot, RPS11 was used as a loading control. For RT-qPCR, shown are mean±SD from 3 independent experiments. (I-J). PNPLA3^WT liver cultures were treated with either healthy or lipotoxic condition for 5 days and then IL6 (100 pg/ml) was added to one set of lipotoxic treated cultures for additional 2 days. Hepatocytes were purified and subject to analysis for triacylglycerol (TAG) level (I), transcript levels of ACC1 and FASN (J) by RT-qPCR. For TAG quantification, shown are mean±SD for 4 independent experiments; for RT-qPCR, shown are mean±SD from 3 independent experiments. Statistical analysis was performed using a two-tailed unpaired t-test with Welch's corrections or One-way ANOVA/Tukey's multiple comparisons test to calculate exact p-values.\nAs a complementary approach, we determined if IL6 was sufficient to enhance NAFLD susceptibility in lipotoxic conditions by supplementing IL6 in PNPLA3^WT cultures to a level similar to that of PNPLA3^I148M cultures. We began after 5 days of lipotoxic exposure when disease phenotypes begin to manifest (FIG. 5B) and only maintained liver cultures for 2 more days to minimize the compounded effect of continuous IL6 secretion on our observations. […] Changes in glucose secretion were not detected, however, likely due to the brevity of IL6 supplementation.\nIntracellular triacylglycerol levels were analyzed for hPSC-derived HEPs purified from different conditions using commercial kits (Promega) per the manufacturer's instructions."}, "hPSC-derived HSCs": {"tested_on": "hPSC-derived HSCs", "assay": "In vitro activation of quiescent HSCs", "settings": "for activation of hPSC-HSCs (COL1A1, FN, ACTA2 western blot): TGFβ1 5 ng/ml, FBS 10%, PDGF 30 ng/ml, 72 hrs"}, "[2]": {"tested_on": "hPSC-derived multicellular liver culture", "assay": "LPS treatment of multicellular liver culture", "source_text": "FIG. 2. Characterization of the multicellular liver culture. (A) Albumin secretion from three-cell (HEP/HSC/Mac), two-cell (HEP/HSC), and HEP monoculture, n=3. (B) Analysis of CYP3A4 and CYP2B6 transcripts in hepatocytes, n=4. (C) Analysis of LRAT transcript in HSCs from three-cell (HSC/HEP/Mac), two-cell (HSC/HEP, HSC/Mac) and HSC monoculture, n=4. (D) Staining of lipid droplets, hepatocytes (ALB), and HSCs (PCDH7). (E) Analysis of IL10 transcript in individual cell-type at three-weeks post-coculture, n=4. (F) Analysis of IL6 and TNF transcripts in macrophages, n=4. Positive control: IFNγ-treated macrophages. (G) Cytokines analysis in liver cultures treated with LPS (500 ng/ml) or control, with or without macrophages, n=4. Data are mean±S.D; Student's t-test (two-tailed) with Welch's corrections (B); One-way ANOVA with Tukey's multiple comparisons test (A, C, E-G).\nFIG. 10. Characterization of multicellular liver culture. (A). Transcript levels of PPARG were analyzed in purified HSCs from the hPSC-derived liver cultures with three-cell (HSC, HEP, and Mac), two-cell (HSC and HEP, HSC and Mac) and HSC monoculture at the indicated time points post co-culture by RT-qPCR. […] Transcript levels of IL10 and macrophages marker CD163 were analyzed in purified macrophages from the hPSC-derived liver cultures with three-cell (HSC, HEP, and Mac) and two-cell (Mac and HEP, Mac and HSC) by RT-qPCR. […] HSC activation markers FN and COL1A1 were analyzed by western blot in HSCs purified from three-cell (HEP, HSC and Mac) and two-cell (HSC and HEP, HSC and Mac) liver cultures treated with LPS (100 ng/ml) for one week. […] Transcript levels of TGFB1 and IL1B in pooled cells from the liver cultures of three-cell (HSC, HEP, and Mac) and two-cell (HSC and HEP) were analyzed at one week post LPS (100 ng/ml) treatment by RT-qPCR. […] Transcript levels of IL1B and TGFB1 in purified individual cells from liver cultures treated with either vehicle control or LPS (100 ng/ml) for one week were analyzed by RT-qPCR. Fold changes were calculated by normalized to individual cells treated with vehicle control. […]"}, "[3]": {"tested_on": "Kupffer cells and hPSC-macrophages", "assay": "Stimulation of macrophages, cytokine transcripts by RT-qPCR", "settings": "LPS 100 ng/ml, 12 hrs"}, "[4]": {"settings": "lipotoxic 5 days, then IL6 100 pg/ml for 2 days"}}}
{"molecule": "C[C@@H](N)[C@H]1CC[C@H](C(=O)Nc2ccncc2)CC1", "note": "[Y-27632, reference compound]", "values": [{"measurement": "motility of activated hPSC-HSCs (closure distance)", "setting": "[1]; Y-27632 20 μM", "result": "markedly inhibited"}]}
{"molecule": "IL6: interleukin 6, cytokine supplemented to liver cultures", "values": [{"measurement": "regulation of genes that drive the GO results of I148M homozygous patients", "setting": "PNPLA3^WT liver cultures; IL6-treated liver cultures", "result": "readily regulated"}, {"measurement": "activation of HSCs from PNPLA3^WT cultures", "setting": "PNPLA3^WT liver cultures; IL6 addition under lipotoxic conditions", "result": "dramatically activated"}, {"measurement": "changes in glucose secretion", "setting": "PNPLA3^WT liver cultures; [4]", "result": "not detected"}, {"measurement": "intracellular TAG levels in PNPLA3^WT hepatocytes", "setting": "PNPLA3^WT liver cultures; [4]", "result": "increased"}, {"measurement": "lipogenesis-associated enzyme expression in PNPLA3^WT hepatocytes", "setting": "PNPLA3^WT liver cultures; [4]", "result": "increased"}]}
{"molecule": "TGFβ1: transforming growth factor beta 1, pro-fibrotic stimulus", "values": [{"measurement": "motility of hPSC-HSCs (closure distance)", "setting": "[1]; activating stimulus, similar to pHSCs", "result": "enhanced motility"}, {"measurement": "activation of hPSC-HSCs (COL1A1, FN, ACTA2 western blot)", "setting": "hPSC-derived HSCs", "result": "clearly activated"}]}
{"molecule": "lipopolysaccharide [LPS]", "values": [{"measurement": "cytokine induction in hPSC-HSCs (IL6, CXCL10 transcripts)", "setting": "hPSC-derived HSCs; LPS 500 ng/ml, 12 hrs", "result": "induced cytokine"}, {"measurement": "HSC activation markers in liver culture", "setting": "[2]; LPS 100 ng/ml, one week", "result": "elevated activation markers"}, {"measurement": "cytoplasmic lipid droplets in HSCs in liver culture", "setting": "[2]; LPS 100 ng/ml, one week", "result": "lost cytoplasmic lipid droplets"}, {"measurement": "IL1β and TGFβ1 levels produced by liver cultures", "setting": "[2]; LPS treatment (500 ng/ml, FIG. 2G)", "result": "much higher levels"}, {"measurement": "inflammatory cytokine transcription in macrophages (CXCL10, IL6, IL1B)", "setting": "[3]", "result": "transcribed inflammatory cytokines"}]}
{"molecule": "PDGF: platelet-derived growth factor, pro-fibrotic stimulus (protein, UniProt P01127 82-190, looked up, homodimer PDGF-BB, platelet-derived growth factor, pro-fibrotic stimulus) Platelet-derived growth …: SLGSLTIAEPAMIAECKTRTEVFEISRRLIDRTNANFLVWPPCVEVQRCSGCCNNRNVQCRPTQVQLRPVQVRKIEIVRKKPIFKKATVTLEDHLACKCETVAAARPVT", "values": [{"measurement": "activation of hPSC-HSCs (COL1A1, FN, ACTA2 western blot)", "setting": "hPSC-derived HSCs", "result": "clearly activated"}]}
